Results: US7727550B2, “Biologically active native biomatrix composition” (The UAB Research Foundation, priority 2003, dated 2010)

Key:
[1] = tested on: HUVEC; assay: HUVEC migration and differentiation in three-dimensional HuBiogel disc culture system; type: cell-based, human; settings: FGF 60 ng/ml added day 0, 5 mg/ml HuBiogel disc, 50 um pore size
Method: Endothelial cells were cultured under standard conditions. On day 0, FGF (60 ng/ml) was added to the culture and incubation continued. At the indicated times, cell morphology was examined and documented. […] There is no differentiation of the cells until the day 5-day 7 time period. After day 7, obvious differentiation as indicated by sprout formation/capillary formation can be seen. […] Such a temporally discrete timing of the activation migration and differentiation steps make the use of this system ideal for studying the biochemical mechanisms involved in each step, as well as isolating potential inhibitors of the mechanisms identified. This time dependent, temporally isolated sequence of events is in contrast to that seen with Matrigel, where differentiation events occur rapidly in the absence of added growth factors and/or growth stimulants.

[2] = tested on: human umbilical vascular endothelial cells (HUVEC); assay: HUVEC culture on two-dimensional biomatrix environments; type: cell-based; settings: FGF 15 ng/ml, two-dimensional HuBiogel matrix
Method: […] The specific morphological changes in the monolayer HUVEC cultures was examined after 72 hrs incubation on each biomatrix environment. HUVECs cultured on plastic or purified collagen I grew poorly (<60% viability). […] Tubular capillary formation is confirmed by cross-sectional electron microscopy showing distinct lumen.

[3] = tested on: mesenchymal stem cells (MSC); assay: Mesenchymal stem cell culture on HuBiogel; type: cell-based; settings: NGF 15 ng/ml
Method: Other cell type may also be grown on HuBiogel™ matrices, with the above being exemplary in nature only. Theses other cell types include neurons, hepatocytes, sertoli cells and the like. For Example, FIGS. 11A and B show glioma cells cultured on HuBiogel™ containing matrices. […] FIGS. 12A and B show mesenchymal stem cells (MSC) cells cultured on HuBiogel™ in the presence (FIG. 12B) and absence of 15 ng/ml NGF (FIG. 12A).

Substance | growth factor induced HUVEC activation, migration and differentiation [1] | HUVEC differentiation on HuBiogel enriched with growth factor [2] | neuronal differentiation of MSC on HuBiogel [3]
FGF: fibroblast growth factor, purified angiogenic factor added to HuBiogel | induced a time dependent series of cellular activation, migration and differentiation steps | rapid formation of tubule-like structures | –
NGF: nerve growth factor | – | – | neuronal differentiation occurred only in the presence of NGF
